{
  "source": "patent US20120015344A1",
  "about": "“Methods, compositions, and apparatus for the detection of viral strains” (priority 2010, published 2012)",
  "key": {"[1]": {"tested_on": "H5 Hemagglutinin (HA) Protein from Influenza Virus, A/Vietnam/1203/04 (H5N1)", "assay_type": "binding, Influenza A virus H5N1 (A/Vietnam/1203/04)"}, "[2]": {"tested_on": "H5N1", "settings": "cited from earlier work"}, "[3]": {"biological_target": "T1, H1 hemagglutinin (HA) protein, A/South Carolina/1/18 (H1N1) (Influenza A virus, UniProt Q9WFX3)", "T1 sequence (Q9WFX3 18-566 limits assumed)": "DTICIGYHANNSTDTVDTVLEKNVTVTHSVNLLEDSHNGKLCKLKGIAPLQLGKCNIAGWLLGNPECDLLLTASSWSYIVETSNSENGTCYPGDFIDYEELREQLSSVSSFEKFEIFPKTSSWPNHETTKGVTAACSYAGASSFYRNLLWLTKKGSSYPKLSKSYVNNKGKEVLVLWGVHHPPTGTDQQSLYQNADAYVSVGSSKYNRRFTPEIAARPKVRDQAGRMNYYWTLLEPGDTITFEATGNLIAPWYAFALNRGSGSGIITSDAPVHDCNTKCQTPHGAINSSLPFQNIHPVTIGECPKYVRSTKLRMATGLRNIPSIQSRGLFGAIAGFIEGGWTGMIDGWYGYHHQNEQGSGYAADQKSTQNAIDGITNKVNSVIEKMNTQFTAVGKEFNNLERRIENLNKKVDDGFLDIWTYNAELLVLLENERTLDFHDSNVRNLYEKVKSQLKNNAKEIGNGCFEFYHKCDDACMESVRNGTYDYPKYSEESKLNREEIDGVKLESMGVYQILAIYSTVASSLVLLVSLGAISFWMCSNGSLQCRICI", "assay_type": "binding, Influenza A virus H1N1 (A/South Carolina/1/18)"}, "[4]": {"tested_on": "H5 Hemagglutinin (HA) Protein from Influenza Virus, A/Vietnam/1203/04 (H5N1)", "assay_type": "binding, Influenza A virus H5N1 (A/Vietnam/1203/04)", "remark": "listed apart in the source"}, "[5]": {"biological_target": "T1, H1 hemagglutinin (HA) protein, A/South Carolina/1/18 (H1N1)", "assay_type": "binding, Influenza A virus H1N1 (A/South Carolina/1/18)", "remark": "listed apart in the source"}},
  "note": "“And” between values parts separate entries of the source, which are not always exact repeats. Identical values can stand only once. “Also recorded” adds a separate entry of the source. Like-named read-outs stand apart in the source and are kept apart here. Marks after values point to notes of the source that are not given here.",
  "data": [
    {"substance": "Neu5Acα2-3Galβ1-4GlcNAcβ-SpNH-LC-LC-Biotin [3′SLN]", "values": [
      {"measurement": "binding between H5 and glycan (avidity, from ΔQ)", "setting": "[1]", "result": "statistically higher avidity; also recorded: high avidity of binding"},
      {"measurement": "Predicted to Bind H5N1", "setting": "[2]", "result": "Yes"}
    ]},
    {"substance": "Neu5Acα2-3Galβ1-4[Fucα1-3]GlcNAcβ-SpNH-LC-LC-Biotin [3′SLe^x]", "values": [
      {"measurement": "Mean ΔQ ± S.D. (n = 3)", "setting": "[3]", "result": "0.08906 ± 0.0045^b mC and 0.1186 ± 0.0180^b mC"},
      {"measurement": "binding between H5 and glycan (avidity, from ΔQ)", "setting": "[4]", "result": "high avidity of binding"},
      {"measurement": "Mean ΔQ ± S.D. (n = 3)", "setting": "[5]", "result": "0.2259 ± 0.0115^f mC and 0.2974 ± 0.0001^f mC"},
      {"measurement": "Predicted to Bind H5N1", "setting": "[2]", "result": "Yes"}
    ]},
    {"substance": "Neu5Acα2-3[GalNAcβ1-4]Galβ1-4GlcNAcβ-SpNH-LC-LC-Biotin [CT/Sda]", "values": [
      {"measurement": "Predicted to Bind H5N1", "setting": "[2]", "result": "No"}
    ]},
    {"substance": "Neu5Acα2-3[Galβ1-4GlcNAcβ1-3]2β-SpNH-LC-LC-Biotin [3′S-Di-LN]", "values": [
      {"measurement": "Predicted to Bind H5N1", "setting": "[2]", "result": "Yes"}
    ]},
    {"substance": "Neu5Acα2-6Galβ1-4GlcNAcβ-SpNH-LC-LC-Biotin [6′SLN]", "values": [
      {"measurement": "Mean ΔQ ± S.D. (n = 3)", "setting": "[1]", "result": "0.1388 ± 0.0056^h mC"},
      {"measurement": "binding between H5 and glycan (avidity, from ΔQ)", "setting": "[1]", "result": "statistically lower binding"},
      {"measurement": "Predicted to Bind H5N1", "setting": "[2]", "result": "No"}
    ]},
    {"substance": "Neu5Acα2-6[Galβ1-4GlcNAcβ1-3]2β-SpNH-LC-LC-Biotin [6′S-Di-LN]", "values": [
      {"measurement": "Predicted to Bind H5N1", "setting": "[2]", "result": "No"}
    ]},
    {"substance": "Neu5Acα2-8Neu5Acα2-8Neu5Acα2-3Galβ1-4Glcβ-SpNH-LC-LC-Biotin [GT3]", "values": [
      {"measurement": "Mean ΔQ ± S.D. (n = 3)", "setting": "[4]", "result": "0.2881 ± 0.0172^f mC"},
      {"measurement": "binding between H5 and glycan (avidity, from ΔQ)", "setting": "[4]", "result": "statistically lower binding"},
      {"measurement": "Predicted to Bind H5N1", "setting": "[2]", "result": "No"}
    ]}
  ]
}
